Experiment [1] deals with Melanin-concentrating hormone receptor 1 (Homo sapiens, UniProt Q99705). The experiment can be described thus: Fluorescence-based counterscreen for antagonists of the G-protein coupled receptor 7 (GPR7): cell-based high throughput dose response assay to identify antagonists of the melanin-concentrating hormone receptor 1 (MCHR1). Format: functional.
The nature of experiment [2]: cytotoxicity toward DRD oncogenic fibroblasts, dose response, cell-based, non-viral oncogenic, luminescence (AID 1934). Format: functional. To be noted: Homo sapiens.
A short description of experiment [3]: NIH-3T3 fibroblast cytotoxicity, dose response, cytotoxicity control, cell-based, fluorescence, Alamar Blue, secondary assay (AID 2327).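 Note: NIH-3T3 mouse fibroblasts cultured with fluconazole at 8 µg/mL.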 Format: functional.
Experiment [4] concerns the target Probable nicotinate-nucleotide adenylyltransferase (Staphylococcus aureus (strain N315), UniProt P65502). The format is functional, Staphylococcus aureus subsp. aureus N315.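 Note: confirmatory retest of primary uHTS inhibitor hits against NadD over a range of doses.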
Experiment [5] has as its target T1, Troponin, cardiac muscle (Homo sapiens, UniProt P19429+P45379+P63316). The experiment can be described thus: Fluorescence-based biochemical high throughput dose response assay for activators of the calcium sensitivity of cardiac Regulated Thin Filaments (RTF). [Related pubchem assays (depositor defined):AID493008, AID493018, AID504382, AID504383]. The format is protein-complex assay.

Another experiment addresses Estrogen receptor beta (Homo sapiens, UniProt Q92731).
Experiment [6] in a line: growth suppression of beta-catenin-knockout colon cells, dose response, cell-based, HCT116, human colon tumor (AID 1045).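 Note: HCT116 colon tumor cells with beta catenin knocked out; cells exposed to compound for 60 hours.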 The format is functional.
Experiment [7] concerns the target T2, Tyrosine-protein phosphatase non-receptor type 22 (Homo sapiens, UniProt Q9Y2R2).
T2 sequence (Q9Y2R2 whole entry): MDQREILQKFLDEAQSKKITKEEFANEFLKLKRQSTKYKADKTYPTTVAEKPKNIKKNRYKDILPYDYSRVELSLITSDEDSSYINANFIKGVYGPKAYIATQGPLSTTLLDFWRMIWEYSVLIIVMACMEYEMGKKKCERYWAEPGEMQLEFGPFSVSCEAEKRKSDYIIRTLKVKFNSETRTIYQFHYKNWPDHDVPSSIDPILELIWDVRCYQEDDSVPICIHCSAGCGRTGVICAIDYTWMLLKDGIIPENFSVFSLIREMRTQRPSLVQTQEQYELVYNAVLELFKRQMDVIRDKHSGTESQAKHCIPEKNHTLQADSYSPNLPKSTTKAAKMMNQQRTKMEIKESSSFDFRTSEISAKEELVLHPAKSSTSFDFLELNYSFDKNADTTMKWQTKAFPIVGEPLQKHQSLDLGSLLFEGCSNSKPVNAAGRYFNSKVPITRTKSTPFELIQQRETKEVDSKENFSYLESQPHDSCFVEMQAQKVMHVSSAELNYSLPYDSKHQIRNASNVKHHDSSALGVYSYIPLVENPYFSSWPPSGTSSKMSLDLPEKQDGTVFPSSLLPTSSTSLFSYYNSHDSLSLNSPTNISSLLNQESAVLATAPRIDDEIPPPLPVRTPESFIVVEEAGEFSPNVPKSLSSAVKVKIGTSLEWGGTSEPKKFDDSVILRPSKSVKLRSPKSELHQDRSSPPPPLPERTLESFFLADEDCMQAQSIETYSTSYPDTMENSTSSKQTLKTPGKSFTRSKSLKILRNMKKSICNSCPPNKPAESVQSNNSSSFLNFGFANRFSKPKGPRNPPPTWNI
In words: SAR LYP1 Fluorescent Assay using OMFP substrate for In Vitro dose response studies - Set 4. [Related pubchem assays (depositor defined):AID1779, AID1784, AID2140, AID2686]. Format: functional.

Experiment [8] has as its target Envelope glycoprotein gp160 (Human immunodeficiency virus 1, UniProt Q6QLK5). In words: inhibitors of HIV fusion peptide binding, primary screen, biochemical, uHTS, fluorescence dequenching (AID 1986).
The target of experiment [9] is T2, Tyrosine-protein phosphatase non-receptor type 22. The experiment can be described thus: SAR LYP1 Fluorescent Assay using OMFP substrate for In Vitro dose response studies - Set 3. [Related pubchem assays (depositor defined):AID1779, AID1784, AID2140, AID2686]. Format: functional.
The target is the same in experiment [10]. In words: SAR LYP1 Fluorescent Assay using OMFP substrate for In Vitro dose response studies - Set 2. [Related pubchem assays (depositor defined):AID1779, AID1784, AID2140, AID449726, AID488869]. Format: functional.
Experiment [11] shares this target. The experiment can be described thus: LYP (PTPN22) phosphatase inhibitor potency, SAR follow-up, biochemical, pCAP fluorogenic substrate, fluorescence, set 3 (AID 449727). The format is functional.
Experiment [12] addresses T1, Troponin, cardiac muscle. In words: inhibitors of cardiac thin filament calcium sensitivity, dose response, biochemical, fluorescence, cardiac regulated thin filaments, triplicate IC50 (AID 504742). Format: protein-complex assay.
Experiment [13] has as its target T3, Glutathione-S-transferase (Schistosoma japonicum, UniProt Q26513).
T3 sequence (Q26513 whole entry): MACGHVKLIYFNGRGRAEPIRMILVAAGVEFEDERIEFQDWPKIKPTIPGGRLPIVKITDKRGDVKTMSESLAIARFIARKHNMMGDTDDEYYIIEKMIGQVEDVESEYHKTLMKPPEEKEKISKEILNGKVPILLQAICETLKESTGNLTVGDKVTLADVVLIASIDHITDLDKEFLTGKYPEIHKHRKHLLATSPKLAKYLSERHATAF
In words: biotin-GST/anti-GST TR-FRET signal inhibitors, dose response, artefact control for Vif-APOBEC3G degradation inhibitor project, biochemical (AID 1117362). The format is functional.

In another experiment the target is T4, Caspase-3 (Homo sapiens, UniProt P42574).
T4 sequence (P42574 whole entry): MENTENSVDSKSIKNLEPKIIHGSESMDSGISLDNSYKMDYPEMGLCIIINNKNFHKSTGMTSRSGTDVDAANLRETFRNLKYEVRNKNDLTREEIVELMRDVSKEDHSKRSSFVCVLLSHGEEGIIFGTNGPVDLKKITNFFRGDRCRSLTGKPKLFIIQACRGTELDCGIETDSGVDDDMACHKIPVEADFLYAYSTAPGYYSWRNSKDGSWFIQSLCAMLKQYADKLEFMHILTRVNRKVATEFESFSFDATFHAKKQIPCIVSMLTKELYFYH
The experiment can be described thus: Dose-response confirmation of uHTS inhibitor hits of Sentrin-Specific Protease 8 in a Caspase-3 Fluorescence assay. Format: functional.

The structures appear in SMILES notation. Active and inactive are the calls of the source.

Chain of Probable nicotinate-nucleotide adenylyltransferase (P65502 whole entry): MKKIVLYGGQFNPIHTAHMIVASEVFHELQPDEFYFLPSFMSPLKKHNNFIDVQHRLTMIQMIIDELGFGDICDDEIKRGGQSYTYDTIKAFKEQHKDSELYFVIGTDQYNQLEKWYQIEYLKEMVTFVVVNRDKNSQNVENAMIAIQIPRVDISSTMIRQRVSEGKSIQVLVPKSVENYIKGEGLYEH
Chain of Envelope glycoprotein gp160 (Q6QLK5 whole entry, the tested form may be a part): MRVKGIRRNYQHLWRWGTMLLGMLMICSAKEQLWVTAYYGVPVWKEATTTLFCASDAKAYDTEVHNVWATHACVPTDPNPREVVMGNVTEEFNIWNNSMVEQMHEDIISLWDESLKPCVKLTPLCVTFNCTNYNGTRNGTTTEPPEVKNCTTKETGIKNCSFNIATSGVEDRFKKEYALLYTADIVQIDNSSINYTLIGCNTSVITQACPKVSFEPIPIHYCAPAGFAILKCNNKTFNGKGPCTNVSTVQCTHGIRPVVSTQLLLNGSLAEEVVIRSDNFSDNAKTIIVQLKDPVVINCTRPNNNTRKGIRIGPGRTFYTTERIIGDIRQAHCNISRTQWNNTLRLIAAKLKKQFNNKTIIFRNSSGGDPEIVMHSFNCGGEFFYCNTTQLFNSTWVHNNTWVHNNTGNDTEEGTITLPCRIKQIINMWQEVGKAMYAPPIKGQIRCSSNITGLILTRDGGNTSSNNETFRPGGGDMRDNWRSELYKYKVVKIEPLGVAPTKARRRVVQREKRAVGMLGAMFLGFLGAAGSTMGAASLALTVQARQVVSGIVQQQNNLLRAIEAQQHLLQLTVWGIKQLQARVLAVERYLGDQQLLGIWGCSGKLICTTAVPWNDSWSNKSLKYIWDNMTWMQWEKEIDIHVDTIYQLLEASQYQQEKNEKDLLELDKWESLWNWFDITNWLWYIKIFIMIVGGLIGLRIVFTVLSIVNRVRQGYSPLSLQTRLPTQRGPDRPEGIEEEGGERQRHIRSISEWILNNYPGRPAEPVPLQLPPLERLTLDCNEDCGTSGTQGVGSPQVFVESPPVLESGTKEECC
Chain of Melanin-concentrating hormone receptor 1 (Q99705 whole entry): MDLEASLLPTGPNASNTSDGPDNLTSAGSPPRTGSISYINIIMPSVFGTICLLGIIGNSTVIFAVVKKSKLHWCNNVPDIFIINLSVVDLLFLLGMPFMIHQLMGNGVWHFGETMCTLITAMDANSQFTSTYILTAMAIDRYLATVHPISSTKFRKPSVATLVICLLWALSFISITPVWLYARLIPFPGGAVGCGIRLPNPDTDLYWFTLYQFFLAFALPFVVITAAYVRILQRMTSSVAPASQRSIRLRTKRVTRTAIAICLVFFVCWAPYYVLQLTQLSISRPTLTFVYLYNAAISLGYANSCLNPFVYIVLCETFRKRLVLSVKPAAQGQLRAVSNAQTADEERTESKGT
Chain of Estrogen receptor beta (Q92731 whole entry): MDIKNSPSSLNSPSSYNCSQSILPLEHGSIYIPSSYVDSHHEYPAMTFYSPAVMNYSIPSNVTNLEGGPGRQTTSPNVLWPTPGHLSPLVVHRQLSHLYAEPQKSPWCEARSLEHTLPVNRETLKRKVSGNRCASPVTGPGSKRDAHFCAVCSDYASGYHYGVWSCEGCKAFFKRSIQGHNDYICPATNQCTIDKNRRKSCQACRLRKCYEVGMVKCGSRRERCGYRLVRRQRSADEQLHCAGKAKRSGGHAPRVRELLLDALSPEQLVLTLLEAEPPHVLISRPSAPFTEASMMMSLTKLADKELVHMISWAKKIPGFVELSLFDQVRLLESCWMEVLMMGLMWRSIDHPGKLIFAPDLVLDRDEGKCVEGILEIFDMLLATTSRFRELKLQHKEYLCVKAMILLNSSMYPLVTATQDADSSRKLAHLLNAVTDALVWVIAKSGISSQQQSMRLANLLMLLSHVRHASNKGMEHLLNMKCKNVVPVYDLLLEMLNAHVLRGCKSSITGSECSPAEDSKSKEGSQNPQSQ

As to `CCN1/C(=C/c2ccc3cc(C)ccc3[n+]2CC)Sc2cc(C)c(C)cc21`, the IC50 in experiment [1] was > 4.87 µM (active). Also, the EC50 in experiment [2] is 1.43 µM (active); in [3] it was 9.66 µM (inconclusive).

In the case of `Nc1ccc2nc3c(O)nc(S)nc3nc2c1`, the IC50 in experiment [4] was 7.46 µM (active). For the same molecule, the EC50 on Troponin, cardiac muscle [5] is 1.14 µM (active).

For `COc1ccc(C(=O)Nc2nc3c(s2)Cc2cc(OC)ccc2-3)cc1`, the IC50 on Estrogen receptor beta was > 50 µM (not active).

As to `Cc1oc2c(c1C(=O)c1ccccc1)C(=O)C(=O)c1ccccc1-2`, the EC50 in [6] is 2.26 µM (active).

As for `O=C(O)COc1ccc(/C=N/NC(=O)c2ccc(-c3csc(Nc4ccc(Cl)cc4)n3)cc2)cc1`, the IC50 in [7] is 1.47 µM (active); in experiment [8], 15 µM (active); in [9], 0.626 µM (active); in experiment [10], 1.24 µM (active); in [11] it was 0.369 µM (active); on Troponin, cardiac muscle [12], > 71.5 µM (inactive).

`COc1cc(NCCCNC(C)C)c2nccc(C)c2c1`: the IC50 was 28.7 µM (active) in experiment [13] and 13.8 µM (active) at Caspase-3.

Values taken from ChEMBL document CHEMBL1201862, “PubChem BioAssay data set” (2004).
